Source: patent US5744452A, “γ-L-glutamyl containing immunomodulator compounds and methods therewith” (Wei; Edward T., priority 1995, dated 1998)

Experiments:
[1] = system: murine bone marrow cells; test: .THETA.-antigen expression on murine bone marrow cells (T-lymphocyte precursor differentiation); format: cell-based, CBA strain mice; design: .THETA.-antigen expression on murine bone marrow cells: unit not given here; details: for .THETA.-antigen expression on murine bone marrow cells: Table 1; for Percent of murine bone marrow cells expressing .THETA.-antigen: Table 5
Protocol: Differentiation of murine T-lymphocyte precursors was studied by the enumeration of cells expressing early surface differentiation marker .THETA.-antigen. Bone marrow cells were obtained from CBA strain mice killed by cervical dislocation. Cells were washed from femur bones with Hank's balanced salt solution and washed 3 times with RPM 1-1640 medium by centrifugation at 400 xg. Peptides at desired concentrations were incubated with 1×10^6 /ml of obtained cells for 1 hour at 37° C. Theta-antigen (".THETA.-antigen") expression has been determined with antibrain antibodies in a cytotoxicity assay using complement-dependent cell lysis (Terasaki et al., "Microdroplet Lymphocyte Cytotoxicity Test. Manual of Tissue Typing Techniques," National Institutes of Health, Bethesda, Md., pp 50-55, 1972). Dead cells were counted microscopically after eosin staining. […] Its activity was much stronger than that of the reference thymogen peptide.
Differentiation of murine T-lymphocyte precursors was studied by the enumeration of cells expressing early surface differentiation marker--.THETA.-antigen which is an analog of the Thy-1 lymphocyte differentiation antigen. Bone marrow cells were obtained from CBA strain mice killed by cervical dislocation. Cells were washed from femur bones with Hank's balanced salt solution and washed 3 times with RPMI-1640 medium by centrifugation at 400 xg. Peptides at desired concentrations were incubated with 1×10^6 /ml of obtained cells for 1 hour at 37° C. .THETA.-antigen expression were determined with antibrain antibodies in a cytotoxicity assay using complement-dependent cell lysis (Terasaki et al., 1972). Dead cells were counted microscopically after eosin staining untreated bone marrow cells served as a negative control, and murine thymocytes as a positive control.

[2] = system: rats; test: Acute toxicity, single intramuscular dose, rats; format: in vivo; details: single 500.0 mg/kg intramuscular, 14 days
Protocol: To illustrate this point and in preparation for clinical studies, acute and sub-acute toxicity studies were conducted in animals with Bestim according to conditions of good-laboratory practices. Bestim, prepared as a sterile lyophitized powder in ampoules, was dissolved in sterile 0.9% NaCl solution and injected intramuscularly in all experiments.
Acute toxicity: Rodents (mice and rats) and dogs were randomized into groups of equal numbers of males and females. Animals were inspected daily for 14 days after a single dose of Bestim (intramuscular):
Body weight, overall appearance and behavior were evaluated each day and, at the end of two weeks, macroscopic and histopathological examinations of the internal organs (heart, lungs, pleural and peritoneal cavities, muscles, stomach, small and large intestine, liver, spleen, pancreas, kidneys, bladder, thyroid, brain, skin and testes/ovaries) of all animals were conducted.

[3] = system: aminopeptidases; test: Degradation by aminopeptidases; format: in vitro ADME
[4] = system: human subjects; test: Side-effects in all 62 human subjects; format: in vivo; details: 0.1 mg i.m. per day for 5 days, 62 patients
Protocol: Preliminary studies were conducted to characterize the immunomodulatory properties of Bestim in human subjects. The protocol for the human subjects studies were reviewed and approved by a Hospital Committee (Moscow Hospital N-24) and informed consent was obtained from all subjects. All 62 patients received by intramuscular injection 0.1 mg of Bestim dissolved in 1.5 to 2.0 ml of sterile saline, one injection per day for 5 days. Patients participating in the clinical trials were from 2 groups: […]

N[C@@H](CCC(=O)N[C@@H](Cc1c[nH]c2ccccc12)C(=O)O)C(=O)O [Bestim, γ-L-glutamyl-L-tryptophan]
.THETA.-antigen expression on murine bone marrow cells ([1]; peptide 0.0001 μg/ml, 1 hour 37° C.): 14 ± 1.5 | .THETA.-antigen expression on murine bone marrow cells ([1]; peptide 0.001 μg/ml): 29 ± 2.4 | .THETA.-antigen expression on murine bone marrow cells ([1]; peptide 0.01 μg/ml): 30 ± 2.8 | .THETA.-antigen expression on murine bone marrow cells ([1]; peptide 0.1 μg/ml): 34 ± 1.9 | .THETA.-antigen expression on murine bone marrow cells ([1]; peptide 1.0 μg/ml): 49 ± 1.2 | .THETA.-antigen expression on murine bone marrow cells ([1]; peptide 10 μg/ml): 48 ± 0.8 | .THETA.-antigen expression on murine bone marrow cells ([1]; peptide 100 μg/ml): 47 ± 1.0 | Percent of murine bone marrow cells expressing .THETA.-antigen ([1]; peptide 0.0001 μg/ml): 25% | Percent of murine bone marrow cells expressing .THETA.-antigen ([1]; peptide 0.001 μg/ml): 31% | Percent of murine bone marrow cells expressing .THETA.-antigen ([1]; peptide 0.01 μg/ml): 35% | Percent of murine bone marrow cells expressing .THETA.-antigen ([1]; peptide 0.1 μg/ml): 37% | Percent of murine bone marrow cells expressing .THETA.-antigen ([1]; peptide 1.0 μg/ml): 49% | Percent of murine bone marrow cells expressing .THETA.-antigen ([1]; peptide 10 μg/ml): 52% | Percent of murine bone marrow cells expressing .THETA.-antigen ([1]; peptide 100 μg/ml): 60% | potency relative to thymogen ([1]; dose-response analysis of Table 1 data): at least 500 fold | concentrations with immunostimulatory activity ([1]; preclinical studies, summary): sub-nanomolar concentrations | deaths [2]: No deaths were observed | general appearance, behavior, body weight, hematological, biochemical and physiological indices, macroscopic and histopathological examination of internal organs [2]: all within normal limits | activity of aminopeptidases against the compound [3]: not active | side-effects [4]: No detectable side-effects
